Measured values from ChEMBL document CHEMBL5137057, “Small Carbohydrate Derivatives as Potent Antibiofilm Agents” (J Med Chem, 2022).
Values after ≈ are worked out from the molar mass of the structure shown. Values belong to the molecule of their own block, whether it stands above or below them.

Assays:
[1] = target: T1, Sortase A (Staphylococcus aureus, UniProt Q9S446); assay: Inhibition of Staphylococcus aureus ATCC 6538p Sortase A protease expressed in Escherichia coli BL21 expression system using Dabcyl-QALPETGEE-Edans as substrate incubated for 1 hr by FRET assay
[2] = target: T1, Sortase A; assay: Inhibition of Staphylococcus aureus ATCC 25904 Sortase A protease expressed in Escherichia coli BL21 expression system using Dabcyl-QALPETGEE-Edans as substrate incubated for 30 mins by FRET assay
[3] = system: Staphylococcus aureus; assay: Prevention of Staphylococcus aureus ATCC 25904 adherence to fibrinogen at 64 ug/ml by crystal violet staining based analysis relative to control; format: functional; conditions: dose 64 µg/ml
[4] = system: Streptococcus suis; assay: Prevention of Streptococcus suis ATCC 700794 adherence to sucrose-dependent membrane surface at 78.1 ug/ml relative to control; format: functional; conditions: dose 78.1 µg/ml
[5] = system: Aggregatibacter actinomycetemcomitans; assay: Antibacterial activity Actinobacillus actinomycetemcomitans ATCC 700685 assessed as bacterial growth inhibition incubated for 24 hrs by broth dilution assay; format: functional
[6] = system: Porphyromonas gingivalis; assay: Antibacterial activity Porphyromonas gingivalis ATCC 33277 assessed as bacterial growth inhibition incubated for 24 hrs by broth dilution assay; format: functional
[7] = system: Pseudomonas aeruginosa; assay: Potentiation of ciprofloxacin-induced antibacterial activity against Pseudomonas aeruginosa MTCC 2488 biofilm at 410 ug/ml incubated for 24 hrs pretreated with compound followed by ciprofloxacin addition by congo red binding assay; format: functional; conditions: dose 410 µg/ml
[8] = system: Pseudomonas aeruginosa; assay: Potentiation of tetracyclin-induced antibacterial activity against Pseudomonas aeruginosa MTCC 2488 biofilm at 410 ug/ml incubated for 24 hrs pretreated with compound followed by tetracyclin addition by congo red binding assay; format: functional; conditions: dose 410 µg/ml
[9] = system: Pseudomonas aeruginosa; assay: Antibacterial activity against Pseudomonas aeruginosa MTCC 2488 biofilm at 410 ug/ml incubated for 24 hrs by congo red binding assay; format: functional; conditions: dose 410 µg/ml
[10] = system: Escherichia coli; assay: Antibiofilm activity against Escherichia coli UTI89 at 2.5 ug/ml incubated for 72 hrs by crystal violet staining based assay relative to control; format: functional; conditions: dose 2.5 µg/ml
[11] = system: Escherichia coli; assay: Antibiofilm activity against Escherichia coli UTI89 at 5 ug/ml incubated for 72 hrs by crystal violet staining based assay relative to control; format: functional; conditions: dose 5 µg/ml
[12] = system: Pseudomonas aeruginosa; assay: Antibacterial activity against Pseudomonas aeruginosa PAO1 NCTC 10332 assessed as inhibition of biofilm formation at 100 ug/ml incubated for 24 hrs by crystal violet staining based analysis relative to control; format: functional; design: scale not given: the % may be the effect or the level left; conditions: dose 100 µg/ml
[13] = system: Pseudomonas aeruginosa; assay: Antibacterial activity against Pseudomonas aeruginosa PAO1 NCTC 10332 assessed as inhibition of biofilm formation incubated for 24 hrs by crystal violet staining based analysis; format: functional, organism-based; conditions: PAO1 NCTC 10332, 24 h
[14] = system: Pseudomonas aeruginosa; assay: Antibacterial activity against Pseudomonas aeruginosa PAO1 NCTC 10332 assessed as inhibition of biofilm dispersion incubated for 24 hrs by crystal violet staining based analysis; format: functional, organism-based; conditions: PAO1 NCTC 10332, 24 h
[15] = system: Serratia marcescens; assay: Antibacterial activity against Serratia marcescens ATCC 27117 assessed as inhibition of biofilm formation at 50 ug/ml incubated for 24 hrs by crystal violet staining based analysis relative to control; format: functional; design: scale not given: the % may be the effect or the level left; conditions: dose 50 µg/ml
[16] = system: Streptococcus mutans; assay: Prevention of Streptococcus mutans adherence at 0.1 mg/ml relative to control; format: functional
[17] = system: Pseudomonas aeruginosa; assay: Antibiofilm activity against Pseudomonas aeruginosa ATCC 27853 at 0.5 mg/ml measured after 24 hrs by crystal violet staining based assay relative to control; format: functional
[18] = system: Streptococcus mutans; assay: Prevention of Streptococcus mutans CLSM 001 adherence to sucrose-dependent glass surface at 1 to 2 mg/ml relative to control; format: functional; conditions: dose 1-2 mg/ml
[19] = system: Cutibacterium acnes; assay: Antibiofilm activity against Propionibacterium acnes LMG 16711 assessed as inhibition of biofilm formation at 0.01 % (w/v) incubated for 24 hrs by fluorescence based analysis; format: functional; design: scale not given: the % may be the effect or the level left
[20] = system: Cutibacterium acnes; assay: Antibiofilm activity against Propionibacterium acnes LMG 16711 assessed as inhibition of biofilm formation at 0.08 % (w/v) incubated for 24 hrs by fluorescence based analysis; format: functional; design: scale not given: the % may be the effect or the level left
[21] = system: Burkholderia cepacia; assay: In vivo antibacterial activity against Burkholderia cepacia LMG 16656 infected in BALB/C mouse assessed as reduction in bacterial load in lung at 2 mg/kg, INH administered for 24 to 48 hr post bacterial infection and measured after 3 days post compound treatment in presence of tobramycin relative to control; format: functional; design: scale not given: the % may be the effect or the level left; conditions: time 3 day
[22] = system: Pseudomonas aeruginosa; assay: Antibiofilm activity against Pseudomonas aeruginosa PAO1 assessed as reduction in bacterial growth by crystal violet staining based assay; format: functional
[23] = Inhibition of AHL-mediated quorum sensing system in Pseudomonas aeruginosa PAO1 assessed as decrease in C4-HSL levels at 64 ug/ml by HPLC/MS analysis relative to control; conditions: dose 64.0 µg/ml
[24] = target: Protease LasA (Pseudomonas aeruginosa) (UniProt P14789); assay: Inhibition of Pseudomonas aeruginosa PAO1 LasA protease at 64 to 256 ug/ml using azocasein as substrate incubated for 24 hrs by spectrophotometrical analysis relative to control; conditions: dose 64-256 µg/ml
[25] = target: Elastase (Pseudomonas aeruginosa (strain ATCC 15692 / PAO1 / 1C / PRS 101 / LMG12228)) (UniProt P14756); assay: Inhibition of Pseudomonas aeruginosa PAO1 LasB elastase at 64 to 256 ug/ml incubated for 16 hrs by elastin Congo red (ECR) assay relative to control; conditions: dose 64-256 µg/ml
[26] = system: Pseudomonas aeruginosa; assay: Inhibition of Pseudomonas aeruginosa PAO1 Pyocyanin at 64 to 256 ug/ml by spectrophotometrical analysis relative to control; conditions: dose 64-256 µg/ml
[27] = target: 3-(3-hydroxydecanoyloxy)decanoate synthase (Pseudomonas aeruginosa (strain ATCC 15692 / PAO1 / 1C / PRS 101 / LMG12228)) (UniProt Q51559); assay: Inhibition of Pseudomonas aeruginosa PAO1 Rhamnolipid at 64 to 256 ug/ml by spectrophotometrical analysis relative to control; conditions: dose 64-256 µg/ml
[28] = Downregulation of c-di-GMP level in Pseudomonas aeruginosa PA14 planktonic cells harboring wspF gene mutation at 10 uM incubated for 24 hrs by HPLC method; format: functional
[29] = system: Pseudomonas aeruginosa; assay: Downregulation of c-di-GMP level in Pseudomonas aeruginosa PA14 harboring wspF gene mutation biofilm at 10 uM incubated for 24 hrs by HPLC method; format: functional
[30] = Antibiofilm activity against Pseudomonas aeruginosa PA14 cocultured with Staphylococcus aureus ATCC 6538 assessed as inhibition of biofilm formation incubated for 24 hrs by crystal violet staining based microtiter plate method relative to control; format: functional; design: scale not given: the % may be the effect or the level left
[31] = target: Lectin A (Photorhabdus laumondii subsp. laumondii, UniProt Q7N561); assay: Inhibition of Photorhabdus luminescens LecA expressed in Escherichia coli BL21(DE3) cells by fluorescence based analysis
[32] = target: Sortase A (Streptococcus mutans, UniProt Q8CM62); assay: Inhibition of Streptococcus mutans ATCC 2517 Sortase A protease expressed in Escherichia coli BL21 expression system using Abz-LPATG-Dap(Dnp)-NH2 as substrate incubated for 1 hrs by FRET assay
[33] = system: Streptococcus mutans; assay: Antibiofilm activity against Streptococcus mutans ATCC 2517 assessed as inhibition of biofilm formation at 128 ug/ml measured after 16 hrs by crystal violet staining based assay relative to control; format: functional; design: scale not given: the % may be the effect or the level left; conditions: dose 128 µg/ml
[34] = system: Staphylococcus aureus; assay: Antibiofilm activity against Staphylococcus aureus USA300 assessed as inhibition of biofilm formation at 256 ug/ml measured after 24 hrs by crystal violet staining based assay relative to control; format: functional; design: scale not given: the % may be the effect or the level left; conditions: dose 256 µg/ml

Lectin A, sequence (Q7N561 whole entry): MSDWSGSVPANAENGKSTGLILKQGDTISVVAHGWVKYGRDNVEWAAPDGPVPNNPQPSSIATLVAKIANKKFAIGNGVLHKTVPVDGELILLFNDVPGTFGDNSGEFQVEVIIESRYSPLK
Elastase (Pseudomonas aeruginosa (strain ATCC 15692 / PAO1 / 1C / PRS 101 / LMG12228)), sequence (P14756 198-498 limits assumed): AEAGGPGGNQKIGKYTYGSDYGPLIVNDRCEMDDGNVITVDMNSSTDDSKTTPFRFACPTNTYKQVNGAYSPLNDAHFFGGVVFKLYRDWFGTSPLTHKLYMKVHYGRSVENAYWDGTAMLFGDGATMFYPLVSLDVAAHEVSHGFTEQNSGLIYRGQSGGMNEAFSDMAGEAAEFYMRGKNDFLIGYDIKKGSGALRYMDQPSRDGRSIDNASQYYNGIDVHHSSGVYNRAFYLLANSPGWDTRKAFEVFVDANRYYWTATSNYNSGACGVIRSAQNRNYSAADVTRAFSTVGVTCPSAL
Sortase A (Streptococcus mutans, UniProt Q8CM62), sequence (Q8CM62 whole entry): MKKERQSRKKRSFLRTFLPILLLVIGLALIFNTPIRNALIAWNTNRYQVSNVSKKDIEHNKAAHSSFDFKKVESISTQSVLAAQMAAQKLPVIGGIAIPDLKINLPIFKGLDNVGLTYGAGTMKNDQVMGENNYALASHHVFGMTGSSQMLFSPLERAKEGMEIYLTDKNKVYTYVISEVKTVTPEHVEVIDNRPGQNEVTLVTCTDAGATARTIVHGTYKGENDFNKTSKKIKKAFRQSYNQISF
Protease LasA (Pseudomonas aeruginosa), sequence (P14789 whole entry): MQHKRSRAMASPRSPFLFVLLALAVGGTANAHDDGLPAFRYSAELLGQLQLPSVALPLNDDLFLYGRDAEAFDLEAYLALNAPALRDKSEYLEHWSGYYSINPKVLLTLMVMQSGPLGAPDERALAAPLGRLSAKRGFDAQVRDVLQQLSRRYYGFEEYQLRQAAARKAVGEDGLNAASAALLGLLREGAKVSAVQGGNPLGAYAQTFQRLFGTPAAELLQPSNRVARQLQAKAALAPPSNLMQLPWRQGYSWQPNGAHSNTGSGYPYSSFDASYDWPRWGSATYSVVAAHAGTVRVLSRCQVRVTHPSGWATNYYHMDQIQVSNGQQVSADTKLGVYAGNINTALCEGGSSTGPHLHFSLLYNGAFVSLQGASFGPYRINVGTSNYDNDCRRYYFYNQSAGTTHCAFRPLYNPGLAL

- IC50 [1]: 31.6 µM
SMILES: CC[C@H](CCC(C)[C@H]1CC[C@H]2[C@@H]3CCC4C[C@@H](O[C@@H]5O[C@H](CO)[C@@H](O)[C@H](O)[C@H]5O)CC[C@]4(C)[C@H]3CC[C@]12C)C(C)C (some centres undefined)

SMILES: C[C@H]1O[C@@H](Oc2c(-c3ccc(O)c(O)c3)oc3cc(O)cc(O)c3c2=O)[C@H](O)[C@H](O)[C@H]1O
- IC50 [2]: 71.4 µM
- Activity [3]: 51.9%

SMILES: C[C@@H]1O[C@@H](OC[C@H]2O[C@@H](Oc3c(-c4ccc(O)c(O)c4)oc4cc(O)cc(O)c4c3=O)[C@H](O)[C@@H](O)[C@@H]2O)[C@H](O)[C@H](O)[C@H]1O [RUTIN]
- Activity [4]: 20%

- MIC50 [5]: 9800 µg/mL (≈ 16900 µM)
- MIC50 [6]: 9800 µg/mL (≈ 16900 µM)
SMILES: C[C@@H]1O[C@@H](O[C@H]2[C@H](Oc3cc(O)c4c(c3)O[C@H](c3ccc(O)cc3)CC4=O)O[C@H](CO)[C@@H](O)[C@@H]2O)[C@H](O)[C@H](O)[C@H]1O [NARINGIN]
- Activity [7]: 89.35%
- Activity [8]: 73.76%
- Activity [9]: 49.5%

SMILES: CC(=O)O[C@@H]1[C@@H](O)[C@@H](O)[C@H](O[C@@H]2[C@@H](O)[C@H](OCCc3ccc(O)c(O)c3)O[C@H](CO)[C@H]2OC(=O)/C=C/c2ccc(O)c(O)c2)O[C@H]1C
- Activity [10]: 77%

SMILES: C[C@@H]1O[C@@H](O[C@@H]2[C@@H](O)[C@H](OCCc3ccc(O)c(O)c3)O[C@H](CO)[C@H]2OC(=O)/C=C/c2ccc(O)c(O)c2)[C@H](O)[C@H](O)[C@H]1O [ACETOSIDE]
- Activity [11]: 60%

- IC50 [13]: 12.5 µg/mL (≈ 17.4 µM)
- IC50 [14]: 10 µg/mL (≈ 13.9 µM)
SMILES: CCCCCCC[C@H](CC(=O)N1CCOCC1)OC(=O)C[C@@H](CCCCCCC)O[C@@H]1O[C@@H](C)[C@H](O)[C@@H](O)[C@H]1O[C@@H]1O[C@@H](C)[C@H](O)[C@@H](O)[C@H]1O
- Activity [12]: 90%
- Activity [15]: >80%

SMILES: COc1cc(-c2[o+]c3cc(O[C@@H]4O[C@H](CO)[C@@H](O)[C@H](O)[C@H]4O)cc(O)c3cc2O[C@@H]2O[C@H](CO)[C@@H](O)[C@H](O)[C@H]2O)cc(OC)c1O
- Activity [16]: 60%

SMILES: CC(=O)O[C@@H]1[C@H](O[C@H]2CC[C@H](C)[C@@]3(C)C[C@@H](/C(C)=C/CC=C(C)C)CC[C@H]23)OC[C@@H](OC(C)=O)[C@H]1OC(C)=O
- Activity [17]: 60%

SMILES: O=c1c(O[C@@H]2OC[C@H](O)[C@H](O)[C@H]2O)c(-c2ccc(O)c(O)c2)oc2cc(O)cc(O)c12 [GUAJAVERIN]
- Activity [18]: 83.7%

SMILES: CC(C)=CCc1c(O[C@@H]2O[C@H](CO)[C@@H](O)[C@H](O)[C@H]2O)cc(O)c2c(=O)c(O[C@@H]3O[C@H](CO)[C@@H](O)[C@H](O)[C@H]3O)c(-c3ccc(O)c(O)c3)oc12
- Activity [19]: 40%
- Activity [20]: 75%

- MIC [22]: > 1020 µg/mL
- inhibition [23]: 77.2%
- inhibition [24]: 48.6%
- inhibition [25]: 77.1%
- inhibition [26]: 61.7%
- inhibition [27]: 45.1%
SMILES: O=C(O)[C@H]1O[C@@H](Oc2cc3oc(-c4ccccc4)cc(=O)c3c(O)c2O)[C@H](O)[C@@H](O)[C@@H]1O [BAICALIN]
- Activity [21]: 99%

SMILES: OC[C@H]1O[C@H](OC[C@H]2O[C@H](O[C@]3(CO)O[C@H](CO)[C@@H](O)[C@@H]3O)[C@H](O)[C@@H](O)[C@@H]2O)[C@H](O)[C@@H](O)[C@H]1O [RAFFINOSE]
- Activity [28]: 47%
- Activity [29]: 59%
- Activity [30]: 23%
- IC50 [31]: 110 µM

- IC50 [32]: 16.7 µM
SMILES: C[C@H]1O[C@@H](O[C@H]2C(=O)c3c(O)cc(O)cc3O[C@@H]2c2ccc(O)c(O)c2)[C@H](O)[C@H](O)[C@H]1O
- Activity [33]: 70%

SMILES: O=c1cc(-c2ccc(O)cc2)oc2cc(O)c([C@@H]3O[C@H](CO)[C@@H](O)[C@H](O)[C@H]3O)c(O)c12 [ISOVITEXIN]
- Activity [34]: 61%
